This passage reports Activity results from ChEMBL document CHEMBL4342480, “Design of Dual Inhibitors of Soluble Epoxide Hydrolase and LTA4 Hydrolase” (ACS Med Chem Lett, 2020).

Type in all cases: functional
In test [1] the test system is Macrophage. Put plainly: Antiinflammatory activity in Escherichia coli O6:K2:H1-induced human M1 macrophage assessed as change in 12-HETE level at 10 uM preincubated for 10 mins followed by Escherichia coli O6:K2:H1-stimulation and measured after 180 mins by UPLC-MS/MS analysis relative to control.
Test [2] relates to Macrophage. The test is described as follows: Antiinflammatory activity in Escherichia coli O6:K2:H1-induced human M2 macrophage assessed as change in 5.15-dlHETE level at 1 uM preincubated for 10 mins followed by Escherichia coli O6:K2:H1-stimulation and measured after 180 mins by UPLC-MS/MS analysis relative to control.
The test system of test [3] is Macrophage. Put plainly: Antiinflammatory activity in Escherichia coli O6:K2:H1-induced human M2 macrophage assessed as change in […] level at 1 uM preincubated for 10 mins followed by Escherichia coli O6:K2:H1-stimulation and measured after 180 mins by UPLC-MS/MS analysis relative to control.
In test [4] the test system is Macrophage. Put plainly: Antiinflammatory activity in Escherichia coli O6:K2:H1-induced human M2 macrophage assessed as change in 15-HEPE level at 10 uM preincubated for 10 mins followed by Escherichia coli O6:K2:H1-stimulation and measured after 180 mins by UPLC-MS/MS analysis relative to control.
Test [5] has as its system Macrophage. Put plainly: Antiinflammatory activity in Escherichia coli O6:K2:H1-induced human M1 macrophage assessed as change in 12-HEPE level at 10 uM preincubated for 10 mins followed by Escherichia coli O6:K2:H1-stimulation and measured after 180 mins by UPLC-MS/MS analysis relative to control.
Test [6] relates to Macrophage. Put plainly: Antiinflammatory activity in Escherichia coli O6:K2:H1-induced human M2 macrophage assessed as change in 5-HETE level at 1 uM preincubated for 10 mins followed by Escherichia coli O6:K2:H1-stimulation and measured after 180 mins by UPLC-MS/MS analysis relative to control.
For test [7], the system named is Macrophage. Put plainly: Antiinflammatory activity in Escherichia coli O6:K2:H1-induced human M1 macrophage assessed as change in 17-HDHA level at 10 uM preincubated for 10 mins followed by Escherichia coli O6:K2:H1-stimulation and measured after 180 mins by UPLC-MS/MS analysis relative to control.
Test [8] has as its system Macrophage. Put plainly: Antiinflammatory activity in Escherichia coli O6:K2:H1-induced human M1 macrophage assessed as change in 5.15-dlHETE level at 1 uM preincubated for 10 mins followed by Escherichia coli O6:K2:H1-stimulation and measured after 180 mins by UPLC-MS/MS analysis relative to control.
Test [9] has as its system Macrophage. The test is described as follows: Antiinflammatory activity in Escherichia coli O6:K2:H1-induced human M1 macrophage assessed as change in 5-HETE level at 10 uM preincubated for 10 mins followed by Escherichia coli O6:K2:H1-stimulation and measured after 180 mins by UPLC-MS/MS analysis relative to control.
In test [10] the test system is Macrophage. Put plainly: Antiinflammatory activity in Escherichia coli O6:K2:H1-induced human M1 macrophage assessed as change in LTB4 level at 1 uM preincubated for 10 mins followed by Escherichia coli O6:K2:H1-stimulation and measured after 180 mins by UPLC-MS/MS analysis relative to control.
Test [11] has as its system Macrophage. Put plainly: Antiinflammatory activity in Escherichia coli O6:K2:H1-induced human M1 macrophage assessed as change in total LTB4 level at 10 uM preincubated for 10 mins followed by Escherichia coli O6:K2:H1-stimulation and measured after 180 mins by UPLC-MS/MS analysis relative to control.
Test [12] relates to Macrophage. Put plainly: Antiinflammatory activity in Escherichia coli O6:K2:H1-induced human M2 macrophage assessed as change in 14-HDHA level at 1 uM preincubated for 10 mins followed by Escherichia coli O6:K2:H1-stimulation and measured after 180 mins by UPLC-MS/MS analysis relative to control.
In test [13] the test system is Macrophage. The test is described as follows: Antiinflammatory activity in Escherichia coli O6:K2:H1-induced human M1 macrophage assessed as change in 5-HEPE level at 1 uM preincubated for 10 mins followed by Escherichia coli O6:K2:H1-stimulation and measured after 180 mins by UPLC-MS/MS analysis relative to control.
Test [14] has as its system Macrophage. Put plainly: Antiinflammatory activity in Escherichia coli O6:K2:H1-induced human M1 macrophage assessed as change in 4-HDHA level at 1 uM preincubated for 10 mins followed by Escherichia coli O6:K2:H1-stimulation and measured after 180 mins by UPLC-MS/MS analysis relative to control.
Test [15] concerns Macrophage. Put plainly: Antiinflammatory activity in Escherichia coli O6:K2:H1-induced human M2 macrophage assessed as change in total LTB4 level at 1 uM preincubated for 10 mins followed by Escherichia coli O6:K2:H1-stimulation and measured after 180 mins by UPLC-MS/MS analysis relative to control.
The subject of test [16] is Macrophage. Put plainly: Antiinflammatory activity in Escherichia coli O6:K2:H1-induced human M1 macrophage assessed as change in total LTB4 level at 1 uM preincubated for 10 mins followed by Escherichia coli O6:K2:H1-stimulation and measured after 180 mins by UPLC-MS/MS analysis relative to control.
For test [17], the system named is Macrophage. The test is described as follows: Antiinflammatory activity in Escherichia coli O6:K2:H1-induced human M1 macrophage assessed as change in 4-HDHA level at 10 uM preincubated for 10 mins followed by Escherichia coli O6:K2:H1-stimulation and measured after 180 mins by UPLC-MS/MS analysis relative to control.
The test system of test [18] is Macrophage. Put plainly: Antiinflammatory activity in Escherichia coli O6:K2:H1-induced human M1 macrophage assessed as change in 18-HEPE level at 1 uM preincubated for 10 mins followed by Escherichia coli O6:K2:H1-stimulation and measured after 180 mins by UPLC-MS/MS analysis relative to control.
In test [19] the test system is Macrophage. Put plainly: Antiinflammatory activity in Escherichia coli O6:K2:H1-induced human M1 macrophage assessed as change in 15-HETE level at 10 uM preincubated for 10 mins followed by Escherichia coli O6:K2:H1-stimulation and measured after 180 mins by UPLC-MS/MS analysis relative to control.
The subject of test [20] is Macrophage. The test is described as follows: Antiinflammatory activity in Escherichia coli O6:K2:H1-induced human M2 macrophage assessed as change in 5-HETE level at 10 uM preincubated for 10 mins followed by Escherichia coli O6:K2:H1-stimulation and measured after 180 mins by UPLC-MS/MS analysis relative to control.
Test [21] deals with Macrophage. The test is described as follows: Antiinflammatory activity in Escherichia coli O6:K2:H1-induced human M2 macrophage assessed as change in PGF2alpha level at 1 uM preincubated for 10 mins followed by Escherichia coli O6:K2:H1-stimulation and measured after 180 mins by UPLC-MS/MS analysis relative to control.
The subject of test [22] is Macrophage. The test is described as follows: Antiinflammatory activity in Escherichia coli O6:K2:H1-induced human M2 macrophage assessed as change in 15-HEPE level at 1 uM preincubated for 10 mins followed by Escherichia coli O6:K2:H1-stimulation and measured after 180 mins by UPLC-MS/MS analysis relative to control.
Test [23] deals with Macrophage. The test is described as follows: Antiinflammatory activity in Escherichia coli O6:K2:H1-induced human M2 macrophage assessed as change in 4-HDHA level at 1 uM preincubated for 10 mins followed by Escherichia coli O6:K2:H1-stimulation and measured after 180 mins by UPLC-MS/MS analysis relative to control.
The test system of test [24] is Macrophage. The test is described as follows: Antiinflammatory activity in Escherichia coli O6:K2:H1-induced human M1 macrophage assessed as change in 5-HEPE level at 10 uM preincubated for 10 mins followed by Escherichia coli O6:K2:H1-stimulation and measured after 180 mins by UPLC-MS/MS analysis relative to control.

As for `O=C(Cc1ccc(Oc2nc3ccccc3s2)cc1F)NCCc1ccc(F)cc1`, the Activity worked out at 131% in test [1]; 93% in test [2]; 64% in test [3]; 120% in [4]; 113% in [5]; 68% in [6]. Moreover, the Activity in [7] is reported as 269%; in [8] it was 152%; in test [9], 42%; in [10], 181%; in [11], 28%; in test [12], 103%. The Activity came out at 102% in test [13]; 88% in test [14]; 83% in test [15]; 132% in test [16]; 72% in test [17]; 74% in test [18]. The Activity stood at 151% in test [19]; 44% in test [20]; 63% in test [21]; 81% in test [22]; 82% in [23]; 65% in test [24].
